Drawing on publication PMC9094411 (2022), this text covers binding for two compounds.

The test concerns E. coli SugE guanidine-II riboswitch aptamer, 47mer FRET construct (C1G) (RNA, riboswitch, 5-aminoallyl-uridine at 3 (dye conjugated)) GUUUGCAGGACGACCUGCAAACGCCUCUUUUCACCGGGGACGGCCCC
The test is described as follows: smFRET histograms, immobilised RNA (kissing-loop state population). The note with it: Mg2+ 1 mM, 50 mM Tris/Cl pH 7.4, 22 °C, imaging buffer, 30 nM-30 mM ligand.

As for `N=C(N)N`, the binding result (K-state 66% at 30 mM) is listed as “yes”.

With `NC(N)=O`, the binding entry (K-state 66% at 30 mM buffer, highest tested 30 mM, no K-state shift, RNA destabilised (U-state 35%)) is listed as “no”.
